Consider 19 molecules from PubChem BioAssay (NCI).

Where “and” joins values, the source holds several entries; their conditions need not be identical. Identical values can stand only once.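 Cultured in 96-well plates, cells were exposed to test compound for 48 hours across five concentrations. The concentration for 50% growth inhibition is given as GI50. TGI marks complete inhibition of growth.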

Some test systems named below: ACHN renal; RPMI-8226 leukemia; SW-620 colon; SF-539 CNS; NCI-H522 lung; M14 melanoma; HCT-15 colon; SK-OV-3 ovarian; LOX IMVI melanoma; MALME-3M melanoma; NCI-H226 lung.
Assay in all cases: growth of human tumour cells (NCI), 48 h

Regarding `CCOC(=O)c1ccn2c(c1)c(C#N)c1nc3ccccc3nc12`, the TGI in the experiment on ACHN renal, in the experiment on RPMI-8226 leukemia, in the experiment on SW-620 colon, in the experiment with SF-539 CNS, in the experiment on NCI-H522 lung and with M14 melanoma was more than 100 µM each time. Moreover, the TGI with HCT-15 colon, in the experiment with SK-OV-3 ovarian, in the experiment with LOX IMVI melanoma and in the experiment with MALME-3M melanoma was more than 100 µM each time.
`C/C=C1/C(=Cc2[nH]c(C=c3[nH]/c(=C/C4=NC(=O)C(CC)=C4C)c(C)c3CCC(=O)O)c(CCC(=O)O)c2C)NC(=O)C1C` (configuration not stated): the TGI in the experiment with ACHN renal is more than 50 µM; with SW-620 colon it was more than 50 µM; in the experiment with SF-539 CNS, 23 µM; in the experiment on NCI-H522 lung it was 39.7 µM; in the experiment with M14 melanoma, 6.11 µM; in the experiment with HCT-15 colon it was more than 50 µM. Also, the TGI in the experiment with SK-OV-3 ovarian was more than 50 µM; in the experiment on NCI-H226 lung, 10.8 µM; in the experiment with LOX IMVI melanoma, 2.61 µM; with MALME-3M melanoma, 31.9 µM.
Turning to `COC(=O)/C(=N\N)C(C(=O)C(=O)Nc1nc(=S)[nH][nH]1)c1nc2ccc([N+](=O)[O-])cc2[nH]c1=O` (configuration not stated), the TGI with ACHN renal, in the experiment with RPMI-8226 leukemia, in the experiment on SW-620 colon, in the experiment with SF-539 CNS, in the experiment with NCI-H522 lung and with M14 melanoma was more than 100 µM in each case. For the same molecule, the TGI in the experiment on HCT-15 colon, with SK-OV-3 ovarian, with NCI-H226 lung, in the experiment with LOX IMVI melanoma and in the experiment on MALME-3M melanoma was more than 100 µM throughout.
On to `C/C(=C\CC/C=C(\C)CC/C=C(\C)CCC1SC1(C)C)CC/C=C(\C)CCC1OC1(C)C` (configuration not stated), for which the TGI in the experiment with ACHN renal, with RPMI-8226 leukemia, with SW-620 colon, in the experiment with SF-539 CNS, in the experiment with NCI-H522 lung and with M14 melanoma was more than 100 µM throughout. In addition, the TGI in the experiment with HCT-15 colon, with SK-OV-3 ovarian, in the experiment with NCI-H226 lung and in the experiment on MALME-3M melanoma was more than 100 µM each time.
For the molecule `COc1cc2c(cc1OC)[C@H]1C(COC(=O)Nc3ccccc3)CN1CC2` (some centres not stated), the TGI in the experiment on ACHN renal, in the experiment on RPMI-8226 leukemia, in the experiment on SW-620 colon, in the experiment with SF-539 CNS, with NCI-H522 lung and with M14 melanoma was more than 100 µM in each case. Moreover, the TGI with HCT-15 colon, in the experiment with SK-OV-3 ovarian, in the experiment on LOX IMVI melanoma and in the experiment on MALME-3M melanoma was more than 100 µM throughout.
On to `Cc1cc(C)c(C(=O)C(C)C(c2ccccc2)c2ccc(Cl)cc2)c(C)c1` (configuration not stated), for which the TGI with ACHN renal is more than 100 µM; in the experiment on RPMI-8226 leukemia it was more than 100 µM; with SW-620 colon, more than 100 µM; with SF-539 CNS it was more than 100 µM; with NCI-H522 lung, > 100 µM and 65.5 µM; in the experiment on M14 melanoma, more than 100 µM. For the same molecule, the TGI in the experiment with HCT-15 colon is more than 100 µM; with SK-OV-3 ovarian it was more than 100 µM; with NCI-H226 lung, more than 100 µM; with MALME-3M melanoma, 71.9 µM and > 100 µM. The GI50 with RPMI-8226 leukemia was 82.4 µM and 29.3 µM; with NCI-H522 lung it was > 100 µM and 15.9 µM.
With `CC(=O)OCC1=CC2CCC3C(C)(CCC[C@]3(C)COC(C)=O)C23CC[C@H]1C3` (some centres not stated), the TGI in the experiment on ACHN renal was more than 100 µM; in the experiment with RPMI-8226 leukemia, 63.1 µM; in the experiment with SW-620 colon, more than 100 µM; in the experiment with SF-539 CNS, more than 100 µM; in the experiment with NCI-H522 lung, 45.4 µM; in the experiment on M14 melanoma it was more than 100 µM. Also, the TGI is more than 100 µM in the experiment on HCT-15 colon; more than 100 µM in the experiment on SK-OV-3 ovarian; more than 100 µM in the experiment with NCI-H226 lung; 62.3 µM with LOX IMVI melanoma; more than 100 µM in the experiment on MALME-3M melanoma.
Consider `COC1(C)CNCC(C)(C)NC(=O)C(C)(OC)CNCC(C)(C)NC1=O` (configuration not stated), for which the TGI in the experiment with ACHN renal, with RPMI-8226 leukemia, in the experiment on SW-620 colon, with SF-539 CNS, in the experiment on NCI-H522 lung and in the experiment with M14 melanoma was more than 100 µM throughout. For the same molecule, the TGI in the experiment with HCT-15 colon, in the experiment with SK-OV-3 ovarian, in the experiment on NCI-H226 lung, with LOX IMVI melanoma and with MALME-3M melanoma was more than 100 µM in each case.
On to `O=S(=O)(CF)OCCCCOS(=O)(=O)CF`, for which the TGI in the experiment on ACHN renal, in the experiment with RPMI-8226 leukemia, in the experiment with SW-620 colon, with SF-539 CNS, in the experiment with NCI-H522 lung and in the experiment on M14 melanoma was more than 100 µM in each case. Further, the TGI in the experiment on HCT-15 colon, in the experiment with SK-OV-3 ovarian, in the experiment with NCI-H226 lung, with LOX IMVI melanoma and in the experiment on MALME-3M melanoma was more than 100 µM in each case.
For `CN1CCN(Cc2ccccc2)CC1CC#N` (configuration not stated), the TGI in the experiment with ACHN renal, in the experiment on RPMI-8226 leukemia, in the experiment with SW-620 colon, with SF-539 CNS, in the experiment with HCT-15 colon and in the experiment on SK-OV-3 ovarian was more than 100 µM throughout. The TGI in the experiment with NCI-H226 lung, in the experiment with LOX IMVI melanoma and with MALME-3M melanoma was more than 100 µM each time.
For the molecule `COC(=O)C(C#N)C1NC(=O)c2ccccc21` (configuration not stated), the TGI in the experiment with ACHN renal, with RPMI-8226 leukemia, in the experiment with SW-620 colon, in the experiment with SF-539 CNS, in the experiment with NCI-H522 lung and in the experiment on M14 melanoma was more than 100 µM in each case. Also, the TGI in the experiment on HCT-15 colon, in the experiment on SK-OV-3 ovarian, in the experiment on NCI-H226 lung, with LOX IMVI melanoma and in the experiment on MALME-3M melanoma was more than 100 µM in each case.
For the molecule `CCCCCCCCCCCCCCCCCCOCC(O)CO` (configuration not stated), the TGI in the experiment on RPMI-8226 leukemia was more than 25 µM; in the experiment on SW-620 colon, more than 17 µM; in the experiment with SF-539 CNS it was more than 25 µM; in the experiment with NCI-H522 lung it was 20.9 µM; in the experiment with HCT-15 colon, more than 25 µM; with SK-OV-3 ovarian it was more than 25 µM. In addition, the values for the TGI in the experiment on NCI-H226 lung, with LOX IMVI melanoma and in the experiment on MALME-3M melanoma were more than 24.2 µM, more than 25 µM and more than 21.1 µM, respectively.
`CC(=O)OCC1OC(n2c(O)c(N=NC(N)=S)c3ccc([N+](=O)[O-])cc32)C(OC(C)=O)C1OC(C)=O` (configuration not stated): the TGI with ACHN renal was more than 100 µM; in the experiment on RPMI-8226 leukemia it was more than 100 µM; with SW-620 colon it was more than 100 µM; in the experiment with SF-539 CNS, 70.2 µM; in the experiment on NCI-H522 lung it was 31.4 µM; with M14 melanoma it was more than 100 µM. Besides, the TGI in the experiment with HCT-15 colon is more than 100 µM; with SK-OV-3 ovarian it was more than 100 µM; in the experiment on NCI-H226 lung, 84.7 µM; in the experiment on LOX IMVI melanoma, 43.1 µM; with MALME-3M melanoma, more than 100 µM.
For `COc1ccc(/C=C/c2nc(=S)[nH][nH]2)cc1OC`, the TGI in the experiment with ACHN renal, with RPMI-8226 leukemia, in the experiment on SW-620 colon, with SF-539 CNS, in the experiment with M14 melanoma and in the experiment with HCT-15 colon was more than 100 µM throughout. In addition, the TGI in the experiment with NCI-H226 lung, with LOX IMVI melanoma and with MALME-3M melanoma was more than 100 µM each time.
As to `CCOC(OC1=C(C#N)CCCC1)C(CC)[Se]c1ccccc1[N+](=O)[O-]` (configuration not stated), the TGI with ACHN renal amounted to 80.7 µM; with RPMI-8226 leukemia, 43.4 µM; in the experiment on SF-539 CNS, 37.8 µM; in the experiment with NCI-H522 lung it was 30.9 µM; in the experiment with M14 melanoma, 37.8 µM; in the experiment with HCT-15 colon, 37.1 µM. For the same molecule, the TGI is more than 100 µM with SK-OV-3 ovarian, 43 µM in the experiment with NCI-H226 lung, 30.9 µM in the experiment on LOX IMVI melanoma and more than 100 µM in the experiment with MALME-3M melanoma.
Turning to `CC(O)C1OC(n2ccc(=O)[nH]c2=O)CC1n1cncn1` (configuration not stated), the TGI with ACHN renal, with RPMI-8226 leukemia, in the experiment with SW-620 colon, with NCI-H522 lung, in the experiment on M14 melanoma and in the experiment on HCT-15 colon was more than 100 µM throughout. For the same molecule, the TGI in the experiment on SK-OV-3 ovarian, in the experiment with NCI-H226 lung, in the experiment on LOX IMVI melanoma and in the experiment on MALME-3M melanoma was more than 100 µM in each case.
As for `C[Si](C)(C)/C=C/CN1C(=O)CCC1=O`, the TGI with ACHN renal, in the experiment on RPMI-8226 leukemia, with SW-620 colon, with SF-539 CNS, in the experiment on NCI-H522 lung and in the experiment on M14 melanoma was more than 100 µM in each case. Further, the TGI in the experiment with HCT-15 colon, in the experiment on SK-OV-3 ovarian, with LOX IMVI melanoma and in the experiment with MALME-3M melanoma was more than 100 µM in each case.
As for `CC(C)=CCOc1ccc(-c2coc3cc4c(c(O)c3c2=O)C=CC(C)(C)O4)cc1`, the TGI with ACHN renal is more than 100 µM; in the experiment on RPMI-8226 leukemia, more than 100 µM; in the experiment on SW-620 colon it was more than 100 µM; in the experiment with NCI-H522 lung, 38.9 µM; with HCT-15 colon it was more than 100 µM; in the experiment with NCI-H226 lung, more than 100 µM. Further, the TGI in the experiment with LOX IMVI melanoma was more than 100 µM.
Turning to `O=C1C2C3C=C4c5ccccc5N(c5ccccc5)C4([C@@H]2C(=O)N1c1ccc(F)cc1)[C@H]1C(=O)N(c2ccc(F)cc2)C(=O)[C@@H]31` (some centres not stated), the TGI in the experiment with ACHN renal, in the experiment on RPMI-8226 leukemia, with SW-620 colon, in the experiment with SF-539 CNS, with NCI-H522 lung and in the experiment with M14 melanoma was more than 100 µM throughout. Further, the TGI with HCT-15 colon, with NCI-H226 lung, with LOX IMVI melanoma and with MALME-3M melanoma was more than 100 µM each time.
